From patent publication US4072685A, “3-(3',4'-Disubstituted) phenyl piperidines” (Roussel Uclaf, priority 1975, dated 1978)
Where a name gives a salt, the structure may show the parent alone.

Columns and labels:
[1] = Acute toxicity (50% lethal dose); details: mouse, in vivo, ip, mice, mortality 48 hours after administration
Experimental: The 50% lethal dose (LD50) was determined for the products after intraperitoneal administration to mice and the mortality was determined 48 hours after the administration of the tested product.

reserpinic rigidity = test: Antagonism against reserpinic rigidity (electromyogram provoked by dorsiflexion of the foot); assay type: in vivo, rats; set-up: key to Antagonism against reserpine: expressed in an increasing number of + as a function of the dose in mg/Kg; ++: expressed in an increasing number of + as a function of the dose in mg/Kg; +++: expressed in an increasing number of + as a function of the dose in mg/Kg; details: for Antagonism against reserpine: i.v., rats; for Antagonism against reserpinic rigidity, in words: results of Table I, Examples 5, 6 and 7 at a dose of 20 mg/kg
Experimental: The antagonism of the tested products against reserpinic rigidity was determined in rats using the procedure of Jurna I: Arch. Pharmak. Exp. Path., Vol. 260 (1968), p. 80-88 and the electromyogram (EMG) provoked by a dorsiflexion of the foot was determined with electrodes placed on the muscles of the anterior loge of the hind foot of the animal. A dose of 10 mg/Kg of reserpine was administered intraveinously and 30 minutes later when the muscle hypertonicity was maximal, the tested product was administered intraveinously at a dose of 10 or 20 mg/Kg. The electromyogram responses were determined before and after the administration of the tested compound and were compared for their intensity and duration.

[2] = tested on: nigrostriatal bundle (dopaminergic activity); test: Rotating behavior after unilateral injury of nigrostriatal bundle, test (b): 6-hydroxydopamine lesion of substantia nigra; assay type: in vivo; details: i.p., male rats, 1 1/2 hours
Experimental: (§1) Among the animals having undergone a unilateral lesion of nigrostriatal bundle, the substances, having a dopaminergic activity induce a rotating behavior. The animals were male rats weighing about 250 g and female mice weighing about 22 g. The lesion was effected in test (a) in the right striatum of the male rats with a 2 mA anodic current for a duration of 30 seconds /Anden et al, Acta. Pharmacol. Toxicol., Vol. 24 (1966), p. 263-274/. The tested compounds were administered intraperitoneally to groups of 6 animals and they were individually placed in a rotometer which counted the number of rotations of each animal in two directions. Each test was continued for 11/2 hours.
In test (b) with the male rats, lesion was effected in the substantia nigra of each rat with 6-hydroxydopamine monohydrochloride at a dose of 20 μg per 4 μl of physiological serum containing 0.2 mg/ml of ascorbic acid by the method of Ungerstedt /Acta. physiol. scand., 1971 a, supp 367, p. 69-93/and the same conditions as in (a) were used.

[3] = tested on: nigrostriatal bundle (dopaminergic activity); test: Rotating behavior after unilateral injury of nigrostriatal bundle, test (a): anodic lesion of right striatum; assay type: in vivo; details: i.p., male rats, 1 1/2 hours
Experimental: as §1

carotid blood pressure = test: Hypotensive activity (carotid blood pressure, anesthetized rats); assay type: in vivo, male rats, Sprague-Dawley S.P.F.; details: i.v.
Experimental: The hypotensive activity was determined on male rats of the Sprague-Dawley S.P.F. strain weighing about 300 g and anesthesized with nembutal at an intraveinous dose of 50 mg/kg. The test product was administered intraveinously into the jugular vein and the carotid blood pressure was measured before and after the administration of the tested compound. The variation in the arterial pressure after the administration of the tested compound as compared to the initial arterial pressure as well as the time necessary for the pressure to return to the initial value were determined.

[4] = tested on: nigrostriatal bundle (dopaminergic activity); test: Rotating behavior after unilateral injury of nigrostriatal bundle, test (c): striatum lesion by aspiration; assay type: in vivo; details: 100 mg/kg, i.p., female mice, observed for an hour
Experimental: as §1, with “Each test was continued for 11/2 hours.” left out
In test (c) with female mice, a lesion of the striatum was effected with a hypodermic needle with a diameter of 0.5 mm by aspiration under vacuum for 5 seconds with the method of Lotti /Life Science, Vol. 10 (1971) I, p. 781-789/.

Structure (SMILES)	LD50 at 48 h [1] [mg/kg]	Antagonism against reserpine (reserpinic rigidity; 20 mg/kg)	rotations, test (b) ([2]; 25 mg/kg)	rotations, test (a) ([3]; 25 mg/kg)	Antagonism against reserpinic rigidity, in words (reserpinic rigidity)	also measured
CCCN1CCCC(c2ccc(O)c(O)c2)C1 (stereo not drawn) [Example 4, N-propyl-3-(3',4'-dihydroxyphenyl)-piperidine hydrobromide]	150	+				
CCN1CCCC(c2ccc(O)c(O)c2)C1 (stereo not drawn) [Example 3, N-ethyl-3-(3',4'-dihydroxyphenyl)-piperidine hydrobromide]	150	+	contralateral rotations	ipsilateral rotations		
CC(=O)Oc1ccc(C2CCCN(Cc3ccccc3)C2)cc1OC(C)=O (stereo not drawn) [Example 6, N-benzyl-3-(3',4'-diacetoxyphenyl)-piperidine oxalate]	300	+++	contralateral rotations	ipsilateral rotation	very active	duration of hypotension (carotid blood pressure; 10 mg/kg, hypotension of 20 to 30%): more than one hour; rotation, test (c) [4]: ipsilateral rotation
CCCN1CCCC(c2ccc(OC(C)=O)c(OC(C)=O)c2)C1 (stereo not drawn) [Example 8, N-propyl-3-(3',4'-diacetoxyphenyl)-piperidine oxalate]	250	++	contralateral rotations	ipsilateral rotations		
Oc1ccc(C2CCCN(CCc3ccccc3)C2)cc1O (stereo not drawn) [Example 7, N-(β-phenylethyl)-3-(3',4'-dihydroxyphenyl)-piperidine fumarate]	150				very active	rotations, test (b) ([2]; 10 mg/kg): contralateral rotations; duration of hypotension (carotid blood pressure; 0.1 mg/kg, hypotension of 5 to 10%): 10 min; hypotension (carotid blood pressure; 1 mg/kg): 30%; duration of hypotension (carotid blood pressure; 1 mg/kg, hypotension of 30%): more than an hour; rotations, test (a) ([3]; 10 mg/kg): ipsilateral rotations; Antagonism against reserpine (reserpinic rigidity; 10 mg/kg): ++
C=CCN1CCCC(c2ccc(O)c(O)c2)C1 (stereo not drawn) [Example 10, N-allyl-3-(3',4'-dihydroxyphenyl)-piperidine hydrobromide]	150		contralateral rotations			
Oc1ccc(C2CCCN(Cc3ccccc3)C2)cc1O (stereo not drawn) [Example 5, N-benzyl-3-(3',4'-dihydroxyphenyl)-piperidine oxalate]	150	+++	contralateral rotations	ipsilateral rotation	very active	rotation, test (c) [4]: ipsilateral rotation
CC(=O)Oc1ccc(C2CCCN(C)C2)cc1OC(C)=O (stereo not drawn) [Example 2, N-methyl-3-(3',4'-diacetoxyphenyl)-piperidine oxalate]	150	++				
CC(C)N1CCCC(c2ccc(O)c(O)c2)C1 (stereo not drawn) [Example 9, N-isopropyl-3-(3',4'-dihydroxyphenyl)-piperidine hydrobromide]	150	+				
CN1CCCC(c2ccc(O)c(O)c2)C1 (stereo not drawn) [Example 1, N-methyl-3-(3',4'-dihydroxyphenyl)-piperidine hydrobromide]	150	++				
